These results are taken from ChEMBL document CHEMBL1944510, “Potent galloyl-based selective modulators targeting multidrug resistance associated protein 1 and P-glycoprotein” (J Med Chem, 2012).

Sequence of ATP-dependent translocase ABCB1 (P08183 whole entry): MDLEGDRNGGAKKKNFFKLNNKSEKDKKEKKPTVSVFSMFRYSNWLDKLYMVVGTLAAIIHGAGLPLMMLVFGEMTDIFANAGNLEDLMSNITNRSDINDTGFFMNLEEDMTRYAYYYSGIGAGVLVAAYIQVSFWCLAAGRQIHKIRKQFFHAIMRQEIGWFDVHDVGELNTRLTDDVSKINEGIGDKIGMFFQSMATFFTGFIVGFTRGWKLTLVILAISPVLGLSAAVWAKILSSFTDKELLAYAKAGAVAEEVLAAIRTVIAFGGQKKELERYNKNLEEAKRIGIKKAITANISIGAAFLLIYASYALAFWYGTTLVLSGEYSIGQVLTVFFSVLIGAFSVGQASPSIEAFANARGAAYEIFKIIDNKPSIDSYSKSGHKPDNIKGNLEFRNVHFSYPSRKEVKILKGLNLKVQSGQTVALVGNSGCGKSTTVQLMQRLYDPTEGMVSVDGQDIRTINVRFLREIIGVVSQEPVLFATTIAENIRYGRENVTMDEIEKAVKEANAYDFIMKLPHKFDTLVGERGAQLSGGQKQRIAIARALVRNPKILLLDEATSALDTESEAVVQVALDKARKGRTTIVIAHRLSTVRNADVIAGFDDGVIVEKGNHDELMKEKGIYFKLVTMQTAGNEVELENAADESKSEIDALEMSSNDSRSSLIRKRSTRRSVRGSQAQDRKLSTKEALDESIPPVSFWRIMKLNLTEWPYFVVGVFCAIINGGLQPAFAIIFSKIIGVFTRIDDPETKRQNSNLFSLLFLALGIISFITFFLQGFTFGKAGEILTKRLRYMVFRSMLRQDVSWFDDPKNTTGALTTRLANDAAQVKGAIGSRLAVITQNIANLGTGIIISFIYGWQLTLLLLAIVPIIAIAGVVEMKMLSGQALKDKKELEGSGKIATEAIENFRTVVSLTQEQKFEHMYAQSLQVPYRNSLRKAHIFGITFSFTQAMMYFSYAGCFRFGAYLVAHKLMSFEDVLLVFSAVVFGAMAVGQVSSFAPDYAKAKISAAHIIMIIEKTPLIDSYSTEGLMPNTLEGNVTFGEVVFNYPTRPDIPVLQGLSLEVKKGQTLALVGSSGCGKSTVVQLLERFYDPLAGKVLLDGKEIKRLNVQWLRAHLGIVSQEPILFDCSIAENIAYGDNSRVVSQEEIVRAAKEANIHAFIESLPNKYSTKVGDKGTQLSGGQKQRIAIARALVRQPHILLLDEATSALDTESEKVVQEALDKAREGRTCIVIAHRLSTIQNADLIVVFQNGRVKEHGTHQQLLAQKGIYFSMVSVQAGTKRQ

System in one data set: not listed separately
Nature of the data set: Chemical stability of the compound at 1 to 100 uM after 1 hr by ESI-MS analysis. In kind it is physicochemical.
Conditions: not given
For `COc1cc(C(=O)Nc2ccc(-c3ccccc3)cc2[N+](=O)[O-])cc(OC)c1OC`, the Stability entry was “Stable”.

With `O=C(Nc1ccc(-c2ccccc2)cc1[N+](=O)[O-])c1cc(O)c(O)c(O)c1`, the Stability result is on record as “Stable”.

As for `COc1cc(C(=O)Nc2ccc(-c3ccccc3)cc2[N+](=O)[O-])cc(O)c1O`, the Stability entry is given as “Stable”.

Another data set has as its target ATP-dependent translocase ABCB1 (Homo sapiens, UniProt P08183). Nature of the data set: Inhibition of human MDR1 expressed in MDCK cells assessed as calcein AM accumulation after 30 mins by fluorescence assay. As to conditions: read-out: IC50. In kind it is cell-based.
Turning to `COc1cc(C(=O)Nc2ccc(Br)cc2)cc(OC)c1OC`, the IC50 was 20 µM.

Consider `COc1cc(C(=O)Nc2ccc(-c3ccccc3)cc2)cc(OC)c1OC`, for which the IC50 was > 100 µM.

Consider `COc1cc(C(=O)Nc2ccc(-c3ccccc3)cc2N)cc(OC)c1OC`, for which the IC50 was 7.2 µM.

`COc1cc(C(=O)Nc2ccc(-c3ccccc3)cc2F)cc(OC)c1OC`: the IC50 is 1.4 µM.

In the case of `COc1cc(C(=O)Nc2ccc(-c3ccccc3)cc2[N+](=O)[O-])cc(OC)c1OC`, the IC50 is > 100 µM.

Consider `COc1cc(C(=O)Nc2ccc(-c3ccccc3)cc2NC(C)=O)cc(OC)c1OC`, for which the IC50 was 1.9 µM.

Regarding `COc1cc(C(=O)Nc2ccc(Br)cc2[N+](=O)[O-])cc(OC)c1OC`, the IC50 was > 100 µM.

Take `COc1ccc(NC(=O)c2cc(OC)c(OC)c(OC)c2)c([N+](=O)[O-])c1`: the IC50 is > 100 µM.

With `COc1cc(C(=O)Nc2cc(-c3ccccc3)ccc2[N+](=O)[O-])cc(OC)c1OC`, the IC50 is 0.57 µM.

Turning to `COc1cc(C(=O)Nc2ccc(-c3cccs3)cc2[N+](=O)[O-])cc(OC)c1OC`, the IC50 is 17.3 µM.

On to `COc1cc(C(=O)Nc2ccc(-c3cccnc3)cc2[N+](=O)[O-])cc(OC)c1OC`, for which the IC50 is 6.8 µM.

On to `COc1cc(C(=O)Nc2ccc(-c3ccc4c(c3)OCO4)cc2[N+](=O)[O-])cc(OC)c1OC`, for which the IC50 is 0.2 µM.

With `COc1cc(C(=O)Nc2ccc(-c3cccc(C(C)=O)c3)cc2[N+](=O)[O-])cc(OC)c1OC`, the IC50 is 0.6 µM.

With `COc1cc(C(=O)Nc2ccc(-c3cc(OC)c(OC)c(OC)c3)cc2[N+](=O)[O-])cc(OC)c1OC`, the IC50 was 24.3 µM.

Turning to `COc1cc(C(=O)Nc2ccc(-c3cccc([N+](=O)[O-])c3)cc2[N+](=O)[O-])cc(OC)c1OC`, the IC50 was 0.4 µM.

With `COc1cc(C(=O)Nc2ccc(-c3ccc[n+](C)c3)cc2[N+](=O)[O-])cc(OC)c1OC`, the IC50 is 34 µM.

With `COc1ccc(C(=O)Nc2ccc(-c3ccccc3)cc2[N+](=O)[O-])cc1OC`, the IC50 was 1.3 µM.

Regarding `COc1cc(OC)cc(C(=O)Nc2ccc(-c3ccccc3)cc2[N+](=O)[O-])c1`, the IC50 was 6.6 µM.

Turning to `COc1cc(CNc2ccc(-c3ccccc3)cc2[N+](=O)[O-])cc(OC)c1OC`, the IC50 was 1.5 µM.

For the compound `COc1cc(NC(=O)c2ccc(-c3ccccc3)cc2[N+](=O)[O-])cc(OC)c1OC`, the IC50 was 2 µM.

For the compound `O=C(Nc1ccc(Br)cc1[N+](=O)[O-])c1cc(O)c(O)c(O)c1`, the IC50 is > 100 µM.

For the compound `O=C(Nc1ccc(-c2ccccc2)cc1[N+](=O)[O-])c1cc(O)c(O)c(O)c1`, the IC50 is > 100 µM.

`O=C(Nc1ccc(-c2ccccc2)cc1[N+](=O)[O-])c1cc(O)cc(O)c1`: the IC50 is 72 µM.

Take `COc1cc(C(=O)Nc2ccc(Br)cc2[N+](=O)[O-])cc(O)c1O`: the IC50 was 38.4 µM.

As to `COc1ccc(NC(=O)c2cc(O)c(O)c(OC)c2)c([N+](=O)[O-])c1`, the IC50 is 65 µM.

As for `COc1cc(C(=O)Nc2cc(-c3ccccc3)ccc2[N+](=O)[O-])cc(O)c1O`, the IC50 was 40.2 µM.

Turning to `COc1cc(C(=O)Nc2ccc(-c3ccccc3)cc2[N+](=O)[O-])cc(O)c1O`, the IC50 was 67 µM.

As to `COc1cc(C(=O)Nc2ccc(-c3cc(F)cc(F)c3)cc2[N+](=O)[O-])cc(O)c1O`, the IC50 was 16.8 µM.

In the case of `COc1cc(C(=O)Nc2ccc(-c3ccc(O)c(O)c3)cc2[N+](=O)[O-])cc(O)c1O`, the IC50 is > 100 µM.

With `COc1cc(C(=O)Nc2ccc(-c3cccc(C(C)=O)c3)cc2[N+](=O)[O-])cc(O)c1O`, the IC50 was 9.1 µM.

Turning to `COc1cc(C(=O)Nc2ccc(-c3cc(O)c(O)c(OC)c3)cc2[N+](=O)[O-])cc(O)c1O`, the IC50 was 3.1 µM.

`COc1cc(C(=O)Nc2ccc(-c3cccc([N+](=O)[O-])c3)cc2)cc(O)c1O`: the IC50 was 32.5 µM.

Consider `COc1cc(C(=O)Nc2ccc(-c3ccccc3)cc2)cc(O)c1O`, for which the IC50 was > 100 µM.

As to `COc1cc(C(=O)Nc2ccc(-c3ccccc3)cc2N)cc(O)c1O`, the IC50 was > 100 µM.

`COc1cc(C(=O)Nc2ccc(-c3ccccc3)cc2F)cc(O)c1O`: the IC50 was 14.1 µM.

As for `COc1cc(C(=O)Nc2ccc(-c3ccccc3)cc2NC(C)=O)cc(O)c1O`, the IC50 is > 100 µM.

For `COc1ccc(C(=O)Nc2ccc(-c3ccccc3)cc2[N+](=O)[O-])cc1O`, the IC50 was 3.5 µM.

Consider `COc1cc(CNc2ccc(-c3ccccc3)cc2[N+](=O)[O-])cc(O)c1O`, for which the IC50 was 72 µM.

For the compound `COc1cc(NC(=O)c2ccc(-c3ccccc3)cc2[N+](=O)[O-])cc(O)c1O`, the IC50 was > 100 µM.

Turning to `COC1=CC(C(=O)Nc2ccc(-c3ccccc3)cc2[N+](=O)[O-])=CC(=O)C1=O`, the IC50 is > 100 µM.

With `COc1ccc(CCN(C)CCCC(C#N)(c2ccc(O)c(O)c2)C(C)C)cc1OC` (racemic), the IC50 is 31.7 µM.

Staying with this data set, now noted: read-out: pIC50 (converted).
As to `COc1cc(C(=O)Nc2cc(-c3ccccc3)ccc2[N+](=O)[O-])cc(OC)c1OC`, the IC50 is 0.57 µM.

As to `COc1cc(C(=O)Nc2ccc(-c3ccc4c(c3)OCO4)cc2[N+](=O)[O-])cc(OC)c1OC`, the IC50 was 0.2 µM.

For the compound `COc1cc(C(=O)Nc2ccc(-c3cccc(C(C)=O)c3)cc2[N+](=O)[O-])cc(OC)c1OC`, the IC50 was 0.6 µM.

With `COc1cc(C(=O)Nc2ccc(-c3cc(OC)c(OC)c(OC)c3)cc2[N+](=O)[O-])cc(OC)c1OC`, the IC50 was 24.3 µM.

With `COc1cc(C(=O)Nc2ccc(-c3cccc([N+](=O)[O-])c3)cc2[N+](=O)[O-])cc(OC)c1OC`, the IC50 was > 1 µM.
